Our source for the T/C values is PubChem BioAssay AID328 (DTP/NCI, 2004).

Several values for one entry are separate records, joined by “and”; a condition that tells them apart may be missing. Equal values may be shown once. Toxic doses and inconclusive results are not listed.

The subject of this test is BDF1 mice, P388 leukemia ip, median survival T/C. Kind of test: NCI In Vivo Anticancer Drug Screen. Data for tumor model P388 Leukemia (intraperitoneal) in B6D2F1 (BDF1) mice. The note with it: endpoint: median survival time, higher = longer survival. In outline:
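T/C = treated-group survival ÷ vehicle-control survival; tumour transplanted into mice before dosing.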

[1] abbreviates: dose: 100.0 mg/kg/injection, schedule: Q01DX001 (ip), vehicle: saline with Tween-80.
Setting [2] is: dose: 200.0 mg/kg/injection, schedule: Q01DX001 (ip), vehicle: saline with Tween-80.
The mark [3] stands for this setting: dose: 100.0 mg/kg/injection, schedule: Q01DX009 (ip), vehicle: saline with Tween-80.
The mark [4] stands for this setting: dose: 25.0 mg/kg/injection, schedule: Q01DX009 (ip), vehicle: saline with Tween-80.
Where [5] appears, read: dose: 25.0 mg/kg/injection, schedule: Q04DX003 (ip), vehicle: saline with Tween-80.
Setting [6] is: dose: 100.0 mg/kg/injection, schedule: Q04DX003 (ip), vehicle: saline with Tween-80.
The mark [7] stands for this setting: dose: 200.0 mg/kg/injection, schedule: Q04DX003 (ip), vehicle: saline with Tween-80.
The mark [8] stands for this setting: dose: 50.0 mg/kg/injection, schedule: Q01DX009 (ip), vehicle: saline with Tween-80.

As for `COc1ccc(Nc2ccnc3cc(Cl)ccc23)cc1CN(CCCl)CCCl`, the T/C is, setting by setting: (dose: 0.11 mg/kg/injection, schedule: Q01DX009 (ip), vehicle: saline) 100 % of control; (dose: 0.13 mg/kg/injection, schedule: Q01DX009 (ip), vehicle: saline) 89 % of control; (dose: 0.2 mg/kg/injection, schedule: Q01DX009 (ip), vehicle: saline) 180 % of control; (dose: 0.22 mg/kg/injection, schedule: Q01DX009 (ip), vehicle: saline) 117 % of control; (dose: 0.22 mg/kg/injection, schedule: Q04DX003 (ip), vehicle: saline) 113 % of control; (dose: 0.33 mg/kg/injection, schedule: Q04DX003 (ip), vehicle: saline) 104 % of control. The T/C runs as follows: (dose: 0.44 mg/kg/injection, schedule: Q01DX009 (ip), vehicle: saline) 166 % of control; (dose: 0.5 mg/kg/injection, schedule: Q04DX003 (ip), vehicle: saline) 122 % of control; (dose: 0.66 mg/kg/injection, schedule: Q01DX009 (ip), vehicle: saline) 163 % of control; (dose: 1.0 mg/kg/injection, schedule: Q01DX009 (ip), vehicle: saline) 163 % of control; (dose: 1.25 mg/kg/injection, schedule: Q01DX009 (ip), vehicle: Klucel (hydroxypropylcellulose) (HPC)) 155 % of control; (dose: 1.5 mg/kg/injection, schedule: Q01DX009 (ip), vehicle: saline) 176 % of control. Also, the T/C is 155 % of control (dose: 2.5 mg/kg/injection, schedule: Q01DX009 (ip), vehicle: Klucel (hydroxypropylcellulose) (HPC)); 154 % of control (dose: 3.13 mg/kg/injection, schedule: Q04DX003 (ip), vehicle: saline); 86 % of control (dose: 4.0 mg/kg/injection, schedule: Q01DX009 (ip), vehicle: saline); 88 % of control (dose: 25.0 mg/kg/injection, schedule: Q04DX003 (ip), vehicle: saline sonified).
Turning to `O=S1(=O)C=CCC2C3CCC(C3)C21` (stereo unspecified), the T/C by setting is: under setting [1], 100 % of control; under setting [2], 106 % of control.
Regarding `Cc1c([C@H](C)[C@@H]2NC[C@@H](C)C[C@H]2O)ccc2c1C[C@H]1[C@H]2CC=C2C[C@@H](O)CC[C@@]21C`, the T/C (dose: 3.0 mg/kg/injection, schedule: Q01DX010 (ip), vehicle: carboxymethylcellulose (CMC)) is 115 % of control.
Take `C(=C\c1cccnc1)/c1ccncc1`: the T/C is, setting by setting: (dose: 66.0 mg/kg/injection, schedule: Q01DX009 (ip), vehicle: Klucel (hydroxypropylcellulose) (HPC)) 158 % of control; (dose: 66.0 mg/kg/injection, schedule: Q01DX009 (ip), vehicle: saline with Tween-80) 108 % of control; (dose: 100.0 mg/kg/injection, schedule: Q01DX009 (ip), vehicle: Klucel (hydroxypropylcellulose) (HPC)) 178 % of control; under setting [3], 94 % of control; (dose: 100.0 mg/kg/injection, schedule: Q04DX003 (ip), vehicle: Klucel (hydroxypropylcellulose) (HPC)) 100 % of control; (dose: 150.0 mg/kg/injection, schedule: Q01DX009 (ip), vehicle: Klucel (hydroxypropylcellulose) (HPC)) 158 % of control. In addition, the T/C was 108 % of control (dose: 150.0 mg/kg/injection, schedule: Q01DX009 (ip), vehicle: saline with Tween-80) and 86 % of control (dose: 200.0 mg/kg/injection, schedule: Q04DX003 (ip), vehicle: Klucel (hydroxypropylcellulose) (HPC)).
As for `Nc1nc(N)c2cc(N3CCCC3c3ccc(Cl)cc3)ccc2n1` (stereo unspecified), the T/C (dose: 3.12 mg/kg/injection, schedule: Q01DX009 (ip), vehicle: saline) was 109 % of control; the T/C (dose: 12.5 mg/kg/injection, schedule: Q01DX009 (ip), vehicle: saline) was 89 % of control; the T/C (dose: 12.5 mg/kg/injection, schedule: Q04DX003 (ip), vehicle: water) is 92 % of control; the T/C (dose: 25.0 mg/kg/injection, schedule: Q04DX003 (ip), vehicle: water) is 111 % of control; the T/C (dose: 50.0 mg/kg/injection, schedule: Q04DX003 (ip), vehicle: water) was 115 % of control.
`CC1CCC[N-]C1.CC1CCC[N-]C1.CC1CCC[N-]C1.CC1CCC[N-]C1.[Cl][Rh][Cl]` (stereo unspecified): for the setting “dose: 3.0 mg/kg/injection, schedule: Q01DX009 (ip), vehicle: Klucel (hydroxypropylcellulose) (HPC)”, the T/C is 162 % of control.
With `O=[N+]([O-])c1ccc(/C=N/c2ncc(Br)s2)o1`, the T/C reads like this: under setting [4], 120 % of control; under setting [5], 104 % of control and 118 % of control; under setting [3], 90 % of control; under setting [6], 118 % of control; under setting [7], 90 % of control.
For the compound `COC(=O)C(CC(O)c1ccccc1)N1CCOCC1` (stereo unspecified), the T/C is, setting by setting: under setting [1], 100 % of control; under setting [2], 100 % of control; (dose: 400.0 mg/kg/injection, schedule: Q01DX001 (ip), vehicle: saline with Tween-80) 100 % of control.
`CCOC1(CC)CN(Cc2ccccc2)CCO1` (stereo unspecified): the T/C runs as follows: (dose: 100.0 mg/kg/injection, schedule: Q01DX001 (ip), vehicle: Klucel (hydroxypropylcellulose) (HPC)) 121 % of control; (dose: 200.0 mg/kg/injection, schedule: Q01DX001 (ip), vehicle: Klucel (hydroxypropylcellulose) (HPC)) 121 % of control; (dose: 400.0 mg/kg/injection, schedule: Q01DX001 (ip), vehicle: Klucel (hydroxypropylcellulose) (HPC)) 115 % of control.
On to `O=C(NC(=O)c1c(F)cccc1F)Nc1ccc([N+](=O)[O-])cn1`, for which the T/C was 96 % of control under setting [4], 90 % of control under setting [8] and 90 % of control under setting [3].
As for `Cc1cc(C)c(C)c(Br)c1`, the T/C by setting is: under setting [8], 100 % of control; under setting [3], 104 % of control.
Take `O=C(CCCc1ccc(N(CCCl)CCCl)cc1)Nc1ccccc1`: the T/C is, setting by setting: (dose: 25.0 mg/kg/injection, schedule: Q01DX009 (ip), vehicle: saline sonified) 109 % of control; under setting [5], 120 % of control; (dose: 50.0 mg/kg/injection, schedule: Q01DX009 (ip), vehicle: saline sonified) 100 % of control; (dose: 100.0 mg/kg/injection, schedule: Q01DX009 (ip), vehicle: saline sonified) 113 % of control; under setting [6], 210 % of control.
As for `Cc1nc(OCc2ccccc2)c(C(=O)OCc2ccccc2)nc1C`, the T/C under setting [4] was 100 % of control; the T/C under setting [8] was 106 % of control and 121 % of control; the T/C under setting [3] was 106 % of control and 108 % of control; the T/C under setting [6] was 94 % of control; the T/C (dose: 200.0 mg/kg/injection, schedule: Q01DX009 (ip), vehicle: saline with Tween-80) was 100 % of control and 101 % of control; the T/C under setting [7] is 91 % of control. For the same compound, the T/C is 97 % of control and 124 % of control (dose: 400.0 mg/kg/injection, schedule: Q01DX009 (ip), vehicle: saline with Tween-80); 100 % of control (dose: 400.0 mg/kg/injection, schedule: Q04DX003 (ip), vehicle: saline with Tween-80); 106 % of control (dose: 500.0 mg/kg/injection, schedule: Q01DX009 (ip), vehicle: saline with Tween-80).
In the case of `O=c1oc2ccccc2c(O)c1C(C/C(=N/O)c1ccccc1)c1ccccc1` (stereo unspecified), the T/C runs as follows: (dose: 6.25 mg/kg/injection, schedule: Q01DX009 (ip), vehicle: saline with Tween-80) 99 % of control; (dose: 6.25 mg/kg/injection, schedule: Q04DX003 (ip), vehicle: saline with Tween-80) 100 % of control and 101 % of control; (dose: 12.5 mg/kg/injection, schedule: Q01DX009 (ip), vehicle: saline with Tween-80) 94 % of control; (dose: 12.5 mg/kg/injection, schedule: Q04DX003 (ip), vehicle: saline with Tween-80) 92 % of control and 107 % of control; under setting [4], 93 % of control; under setting [5], 105 % of control and 108 % of control. The T/C is 95 % of control and 110 % of control (dose: 50.0 mg/kg/injection, schedule: Q04DX003 (ip), vehicle: saline with Tween-80); 102 % of control under setting [6].
Regarding `O=C1OC2C(I)C3CCC2C1C3` (stereo unspecified), the T/C is 105 % of control (dose: 100.0 mg/kg/injection, schedule: Q01DX009 (ip), vehicle: saline); 121 % of control (dose: 100.0 mg/kg/injection, schedule: Q04DX003 (ip), vehicle: saline); 115 % of control (dose: 200.0 mg/kg/injection, schedule: Q01DX009 (ip), vehicle: saline); 95 % of control (dose: 200.0 mg/kg/injection, schedule: Q04DX003 (ip), vehicle: saline); 95 % of control (dose: 400.0 mg/kg/injection, schedule: Q04DX003 (ip), vehicle: saline).
